These results are taken from US20170190705A1, “Compositions and Methods for Inhibiting BMP” (THE BRIGHAM AND WOMAN'S HOSPITAL, INC., priority 2014, published 2017).

Each structure is given as a SMILES string.

Holding throughout (assay type): biochemical
The target in one experiment is INSR (Homo sapiens, UniProt P06213). Description: Kinome profiling INSR. The following applies: read-out: Inhibitory activity INSR; for inhibition at 0.1 µM: 100 nM. The protocol:
(§1) . The kinome-wide selectivity was determined following the methods previously reported by Mohedas et al., ACS Chem Biol 2013, 8, 1291-1302 and Sanvitale et al., PLoS One 2013, 8, e62721.

In a further experiment the target is HCK (Homo sapiens, UniProt P08631). Briefly: Kinome profiling HCK. The following applies: read-out: Inhibitory activity HCK; for inhibition at 0.1 µM: 100 nM. The protocol:
as §1

The next experiment deals with TRKA (Homo sapiens, UniProt P04629). Description: Kinome profiling TRKA. The following applies: read-out: Inhibitory activity TRKA; for inhibition at 0.1 µM: 100 nM. The protocol: as §1
The next experiment addresses MARK3 (Homo sapiens, UniProt P27448). Description: Kinome profiling MARK3. As to conditions: read-out: Inhibitory activity MARK3; for inhibition at 0.1 µM: 100 nM. The protocol:
as §1

Another experiment deals with GSK3β (Homo sapiens, UniProt P49841). Description: Kinome profiling GSK3β. As to conditions: read-out: Inhibitory activity GSK3β; for inhibition at 0.1 µM: 100 nM. The protocol: as §1
The target of another experiment is P70S6KB1 (Homo sapiens, UniProt P23443). Description: Kinome profiling P70S6KB1. The following applies: read-out: Inhibitory activity P70S6KB1; for inhibition at 0.1 µM: 100 nM. The protocol:
as §1

The target of another experiment is T1, BRSK2 (Homo sapiens, UniProt Q8IWQ3).
T1 sequence (Q8IWQ3 1-736): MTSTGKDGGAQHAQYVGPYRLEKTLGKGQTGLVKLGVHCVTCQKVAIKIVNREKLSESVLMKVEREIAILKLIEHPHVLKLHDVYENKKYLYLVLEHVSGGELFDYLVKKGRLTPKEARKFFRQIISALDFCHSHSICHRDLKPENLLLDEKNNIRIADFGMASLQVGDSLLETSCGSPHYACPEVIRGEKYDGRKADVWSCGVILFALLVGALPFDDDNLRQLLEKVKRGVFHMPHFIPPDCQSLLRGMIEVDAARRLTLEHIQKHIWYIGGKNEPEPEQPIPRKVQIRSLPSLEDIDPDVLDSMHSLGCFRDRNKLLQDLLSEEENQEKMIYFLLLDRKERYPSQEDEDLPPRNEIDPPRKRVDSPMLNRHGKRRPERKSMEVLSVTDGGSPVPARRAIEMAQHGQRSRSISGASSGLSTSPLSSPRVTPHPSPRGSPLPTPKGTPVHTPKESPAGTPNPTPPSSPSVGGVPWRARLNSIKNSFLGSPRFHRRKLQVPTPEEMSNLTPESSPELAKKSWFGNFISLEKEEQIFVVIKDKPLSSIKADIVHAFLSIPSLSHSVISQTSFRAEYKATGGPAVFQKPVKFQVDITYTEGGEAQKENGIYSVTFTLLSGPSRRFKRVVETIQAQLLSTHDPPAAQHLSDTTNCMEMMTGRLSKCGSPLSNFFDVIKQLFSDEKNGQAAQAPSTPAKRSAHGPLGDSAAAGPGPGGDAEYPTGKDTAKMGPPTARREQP
Description: Kinome profiling BRSK2. As to conditions: read-out: Inhibitory activity BRSK2; for inhibition at 0.1 µM: 100 nM. The protocol: as §1

For the next experiment, the target named is PI4-K-β (Homo sapiens, UniProt Q9UBF8). Briefly: Kinome profiling PI4-K-β. The following applies: read-out: Inhibitory activity PI4-K-β; for inhibition at 0.1 µM: 100 nM. The protocol: as §1
The next experiment has as its target PAK5 (Homo sapiens, UniProt Q9P286). Description: Kinome profiling PAK5. The following applies: read-out: Inhibitory activity PAK5; for inhibition at 0.1 µM: 100 nM. The protocol: as §1
The next experiment addresses T2, DCAMKL2 (Homo sapiens, UniProt Q8N568).
T2 sequence (Q8N568 1-766): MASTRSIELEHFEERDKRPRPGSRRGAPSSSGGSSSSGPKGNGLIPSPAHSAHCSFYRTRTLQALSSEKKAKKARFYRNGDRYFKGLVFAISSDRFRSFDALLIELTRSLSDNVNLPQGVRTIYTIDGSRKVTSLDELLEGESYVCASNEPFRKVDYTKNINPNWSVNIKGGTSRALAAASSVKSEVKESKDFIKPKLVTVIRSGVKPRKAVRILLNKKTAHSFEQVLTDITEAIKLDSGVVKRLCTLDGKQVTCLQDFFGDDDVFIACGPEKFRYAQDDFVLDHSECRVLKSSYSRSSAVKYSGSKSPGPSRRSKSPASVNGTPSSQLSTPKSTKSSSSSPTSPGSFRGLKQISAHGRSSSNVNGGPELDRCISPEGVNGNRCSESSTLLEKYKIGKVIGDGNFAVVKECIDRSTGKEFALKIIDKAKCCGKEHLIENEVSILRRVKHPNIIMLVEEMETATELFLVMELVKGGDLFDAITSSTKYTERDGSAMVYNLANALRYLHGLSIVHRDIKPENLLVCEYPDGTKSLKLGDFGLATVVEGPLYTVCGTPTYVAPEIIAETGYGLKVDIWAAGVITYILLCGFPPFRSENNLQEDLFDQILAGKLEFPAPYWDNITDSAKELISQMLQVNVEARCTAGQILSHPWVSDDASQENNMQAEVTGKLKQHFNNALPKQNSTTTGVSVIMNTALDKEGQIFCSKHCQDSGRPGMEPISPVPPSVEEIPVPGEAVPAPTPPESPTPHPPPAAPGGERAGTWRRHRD
Description: Kinome profiling DCAMKL2. As to conditions: read-out: Inhibitory activity DCAMKL2; for inhibition at 0.1 µM: 100 nM. The protocol:
as §1

Sequence of INSR (P06213 28-1382): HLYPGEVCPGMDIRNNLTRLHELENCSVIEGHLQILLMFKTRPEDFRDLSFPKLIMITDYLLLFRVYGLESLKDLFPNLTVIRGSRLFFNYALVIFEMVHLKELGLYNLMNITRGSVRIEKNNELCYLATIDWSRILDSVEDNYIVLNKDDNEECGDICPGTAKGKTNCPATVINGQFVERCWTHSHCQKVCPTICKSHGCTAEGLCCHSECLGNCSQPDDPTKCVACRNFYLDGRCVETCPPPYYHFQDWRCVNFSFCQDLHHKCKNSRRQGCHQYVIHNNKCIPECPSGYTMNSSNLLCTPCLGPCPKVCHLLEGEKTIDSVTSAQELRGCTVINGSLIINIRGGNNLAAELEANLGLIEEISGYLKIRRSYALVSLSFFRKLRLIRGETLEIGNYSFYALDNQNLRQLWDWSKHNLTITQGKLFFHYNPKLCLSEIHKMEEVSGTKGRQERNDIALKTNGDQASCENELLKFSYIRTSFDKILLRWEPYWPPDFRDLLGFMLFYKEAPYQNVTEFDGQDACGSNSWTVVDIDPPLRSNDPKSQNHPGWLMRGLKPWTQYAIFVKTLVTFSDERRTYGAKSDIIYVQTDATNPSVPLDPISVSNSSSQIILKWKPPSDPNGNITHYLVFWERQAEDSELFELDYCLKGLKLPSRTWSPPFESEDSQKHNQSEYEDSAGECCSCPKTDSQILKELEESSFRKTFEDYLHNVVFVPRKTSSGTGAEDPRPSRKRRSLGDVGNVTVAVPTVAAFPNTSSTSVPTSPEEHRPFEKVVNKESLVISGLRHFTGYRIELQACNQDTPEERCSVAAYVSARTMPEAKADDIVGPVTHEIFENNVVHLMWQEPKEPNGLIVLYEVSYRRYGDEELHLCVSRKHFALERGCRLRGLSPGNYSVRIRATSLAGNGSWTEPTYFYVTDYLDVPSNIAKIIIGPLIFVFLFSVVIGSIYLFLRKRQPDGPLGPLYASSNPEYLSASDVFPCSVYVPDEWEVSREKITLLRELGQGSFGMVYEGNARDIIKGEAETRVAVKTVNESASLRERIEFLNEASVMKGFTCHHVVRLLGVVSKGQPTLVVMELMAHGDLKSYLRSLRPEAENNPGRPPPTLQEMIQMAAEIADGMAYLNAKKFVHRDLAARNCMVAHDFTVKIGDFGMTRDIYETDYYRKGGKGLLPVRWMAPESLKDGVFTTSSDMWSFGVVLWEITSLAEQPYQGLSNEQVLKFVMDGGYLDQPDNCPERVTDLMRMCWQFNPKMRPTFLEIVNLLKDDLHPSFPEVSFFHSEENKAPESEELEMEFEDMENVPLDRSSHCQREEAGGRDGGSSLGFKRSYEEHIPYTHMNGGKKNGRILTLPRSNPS
Sequence of HCK (P08631 whole entry): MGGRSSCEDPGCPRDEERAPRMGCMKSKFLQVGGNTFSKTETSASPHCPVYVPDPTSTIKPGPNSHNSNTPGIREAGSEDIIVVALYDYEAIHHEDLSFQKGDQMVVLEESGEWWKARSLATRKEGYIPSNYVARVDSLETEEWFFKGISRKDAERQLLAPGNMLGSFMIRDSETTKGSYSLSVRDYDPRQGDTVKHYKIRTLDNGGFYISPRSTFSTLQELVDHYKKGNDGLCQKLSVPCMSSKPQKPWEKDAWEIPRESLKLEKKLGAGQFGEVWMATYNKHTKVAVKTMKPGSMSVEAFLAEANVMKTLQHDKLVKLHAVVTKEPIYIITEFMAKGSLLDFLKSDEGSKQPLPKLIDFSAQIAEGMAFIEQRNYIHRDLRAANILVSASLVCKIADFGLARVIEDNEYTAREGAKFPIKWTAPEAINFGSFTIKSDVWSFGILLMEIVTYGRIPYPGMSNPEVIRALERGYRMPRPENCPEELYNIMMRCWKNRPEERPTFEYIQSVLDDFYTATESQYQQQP
Sequence of TRKA (P04629 33-796): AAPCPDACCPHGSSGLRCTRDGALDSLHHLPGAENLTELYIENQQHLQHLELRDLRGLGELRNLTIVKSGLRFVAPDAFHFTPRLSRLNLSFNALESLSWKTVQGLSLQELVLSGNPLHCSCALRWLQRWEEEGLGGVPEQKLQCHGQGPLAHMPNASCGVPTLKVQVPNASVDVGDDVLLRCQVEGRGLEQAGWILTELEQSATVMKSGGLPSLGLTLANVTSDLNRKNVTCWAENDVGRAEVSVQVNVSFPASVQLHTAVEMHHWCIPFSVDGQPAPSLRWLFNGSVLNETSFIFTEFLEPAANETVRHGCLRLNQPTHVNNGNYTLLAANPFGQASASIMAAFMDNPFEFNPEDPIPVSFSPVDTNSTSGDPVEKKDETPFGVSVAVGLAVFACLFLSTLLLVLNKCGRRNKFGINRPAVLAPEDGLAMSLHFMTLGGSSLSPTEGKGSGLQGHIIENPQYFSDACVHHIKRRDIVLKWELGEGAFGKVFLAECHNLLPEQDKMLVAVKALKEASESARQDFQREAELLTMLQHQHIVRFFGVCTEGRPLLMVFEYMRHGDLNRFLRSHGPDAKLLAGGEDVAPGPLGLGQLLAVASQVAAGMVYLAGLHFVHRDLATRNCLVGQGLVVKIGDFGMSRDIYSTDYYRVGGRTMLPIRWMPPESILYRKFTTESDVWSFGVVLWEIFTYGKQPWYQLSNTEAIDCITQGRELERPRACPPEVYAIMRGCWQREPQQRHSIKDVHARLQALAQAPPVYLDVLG
Sequence of P70S6KB1 (P23443 whole entry): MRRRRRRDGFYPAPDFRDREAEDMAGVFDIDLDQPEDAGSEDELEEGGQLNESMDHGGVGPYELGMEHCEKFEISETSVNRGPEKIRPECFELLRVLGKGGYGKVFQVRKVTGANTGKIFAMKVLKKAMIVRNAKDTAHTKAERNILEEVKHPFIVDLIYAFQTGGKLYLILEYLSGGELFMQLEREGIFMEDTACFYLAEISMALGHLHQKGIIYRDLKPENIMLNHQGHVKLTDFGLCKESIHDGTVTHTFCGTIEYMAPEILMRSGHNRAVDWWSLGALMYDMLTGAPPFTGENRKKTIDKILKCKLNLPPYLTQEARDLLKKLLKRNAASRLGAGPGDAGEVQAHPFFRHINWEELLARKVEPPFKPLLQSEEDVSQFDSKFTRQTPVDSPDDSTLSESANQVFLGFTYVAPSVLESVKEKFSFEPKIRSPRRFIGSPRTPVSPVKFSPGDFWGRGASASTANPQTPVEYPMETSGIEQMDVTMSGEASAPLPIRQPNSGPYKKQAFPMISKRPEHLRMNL
Sequence of MARK3 (P27448 whole entry): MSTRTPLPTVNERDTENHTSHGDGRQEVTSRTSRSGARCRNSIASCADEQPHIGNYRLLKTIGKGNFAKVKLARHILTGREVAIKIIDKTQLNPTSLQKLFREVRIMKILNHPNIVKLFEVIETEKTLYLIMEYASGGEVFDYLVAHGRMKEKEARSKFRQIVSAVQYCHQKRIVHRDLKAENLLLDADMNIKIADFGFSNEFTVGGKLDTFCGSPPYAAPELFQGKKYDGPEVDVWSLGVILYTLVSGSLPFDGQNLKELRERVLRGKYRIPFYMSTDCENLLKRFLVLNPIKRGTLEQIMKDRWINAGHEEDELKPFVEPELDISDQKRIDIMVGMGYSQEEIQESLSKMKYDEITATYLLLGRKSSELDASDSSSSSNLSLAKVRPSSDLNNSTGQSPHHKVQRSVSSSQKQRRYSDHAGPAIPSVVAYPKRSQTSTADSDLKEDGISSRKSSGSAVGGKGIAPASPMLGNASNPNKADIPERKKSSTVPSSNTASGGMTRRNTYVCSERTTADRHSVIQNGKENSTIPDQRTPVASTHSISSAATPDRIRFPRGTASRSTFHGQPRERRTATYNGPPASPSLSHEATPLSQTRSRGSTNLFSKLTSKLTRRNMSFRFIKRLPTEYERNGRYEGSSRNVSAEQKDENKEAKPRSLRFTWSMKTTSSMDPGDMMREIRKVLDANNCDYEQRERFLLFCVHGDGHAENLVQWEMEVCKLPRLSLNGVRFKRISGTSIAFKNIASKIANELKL
Sequence of GSK3β (P49841 whole entry): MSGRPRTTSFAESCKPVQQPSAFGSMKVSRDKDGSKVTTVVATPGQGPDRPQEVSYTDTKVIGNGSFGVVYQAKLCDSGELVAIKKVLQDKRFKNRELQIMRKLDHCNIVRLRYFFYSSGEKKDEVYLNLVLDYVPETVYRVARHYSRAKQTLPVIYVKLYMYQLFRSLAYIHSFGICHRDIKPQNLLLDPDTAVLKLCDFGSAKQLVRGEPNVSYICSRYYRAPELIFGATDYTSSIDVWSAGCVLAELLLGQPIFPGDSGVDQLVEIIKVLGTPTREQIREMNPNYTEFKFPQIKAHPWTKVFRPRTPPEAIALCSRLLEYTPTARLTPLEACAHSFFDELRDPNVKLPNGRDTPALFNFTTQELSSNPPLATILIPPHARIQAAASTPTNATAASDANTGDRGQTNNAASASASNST
Sequence of PAK5 (Q9P286 whole entry): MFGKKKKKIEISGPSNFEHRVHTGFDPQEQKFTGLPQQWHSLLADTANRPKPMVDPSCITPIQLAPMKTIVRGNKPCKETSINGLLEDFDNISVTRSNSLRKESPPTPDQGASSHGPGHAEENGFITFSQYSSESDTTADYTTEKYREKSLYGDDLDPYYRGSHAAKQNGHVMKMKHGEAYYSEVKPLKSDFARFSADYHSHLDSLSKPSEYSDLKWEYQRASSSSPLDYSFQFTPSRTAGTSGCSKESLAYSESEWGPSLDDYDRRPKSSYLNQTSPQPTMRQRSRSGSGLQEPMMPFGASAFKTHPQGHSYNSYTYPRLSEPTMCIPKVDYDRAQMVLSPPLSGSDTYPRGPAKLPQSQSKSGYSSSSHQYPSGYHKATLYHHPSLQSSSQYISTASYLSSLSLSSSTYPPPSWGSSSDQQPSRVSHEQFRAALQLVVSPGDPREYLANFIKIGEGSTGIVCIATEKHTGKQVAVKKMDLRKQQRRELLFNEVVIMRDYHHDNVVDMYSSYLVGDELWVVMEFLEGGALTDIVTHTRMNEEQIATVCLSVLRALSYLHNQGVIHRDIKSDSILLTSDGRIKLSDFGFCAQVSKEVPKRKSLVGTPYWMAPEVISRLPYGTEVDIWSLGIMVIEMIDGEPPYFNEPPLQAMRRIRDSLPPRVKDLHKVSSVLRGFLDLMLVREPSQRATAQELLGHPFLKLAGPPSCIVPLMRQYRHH

For the compound `COc1cc(-c2cc(-c3ccc(N4CCNCC4)cc3)cnc2C)cc(OC)c1OC` [Compound 10, 1-(4-(6-methyl-5-(3,4,5-trimethoxyphenyl)pyridin-3-yl)phenyl)piperazine], the inhibition at 0.1 µM on INSR is 3%; at HCK, 3%; at TRKA, 2%; on MARK3, 0%; on GSK3β, 2%; on P70S6KB1 it was 1%. Moreover, the inhibition at 0.1 µM was 2% at BRSK2, -10% on PI4-K-β, 1% at PAK5 and 1% on DCAMKL2. Further, the inhibition at 1 µM turned out to be 3% on INSR; 15% at HCK; 1% at TRKA; 3% on MARK3; 4% at GSK3β; 1% at P70S6KB1. The inhibition at 1 µM at BRSK2 was 1%; on PI4-K-β it was -15%; at PAK5, 1%; at DCAMKL2, 0%.
Consider `COc1cc(-c2cc(-c3ccc(N4CCNCC4)cc3)cnc2N)cc(OC)c1OC` [Compound 15, 5-(4-(piperazin-1-yl)phenyl)-3-(3,4,5-trimethoxyphenyl)pyridin-2-amine], for which the inhibition at 0.1 µM on INSR was found to be 4%; at HCK, 41%; at TRKA, 5%; at MARK3 it was 4%; on GSK3β, 0%; at P70S6KB1 it was 0%. Besides, the inhibition at 0.1 µM on BRSK2 is 1%; on PI4-K-β, 1%; on PAK5 it was 9%; at DCAMKL2, -1%. Also, the inhibition at 1 µM was 8% at INSR; 81% at HCK; 5% at TRKA; 48% on MARK3; -1% on GSK3β; 0% on P70S6KB1. Moreover, the inhibition at 1 µM on BRSK2 is 2%; at PI4-K-β it was 1%; on PAK5, 6%; at DCAMKL2 it was 3%.
